IC50 data for 21 compounds are collected here from patent US5063208A, “Peptidyl aminodiol renin inhibitors” (Abbott Laboratories, priority 1990, dated 1991).

For the experiment, the target named is T1, human renal renin (Homo sapiens, UniProt P00797).
T1 construct: human renal renin, free from acid proteolytic activity; from tissue
T1 sequence (P00797 67-406): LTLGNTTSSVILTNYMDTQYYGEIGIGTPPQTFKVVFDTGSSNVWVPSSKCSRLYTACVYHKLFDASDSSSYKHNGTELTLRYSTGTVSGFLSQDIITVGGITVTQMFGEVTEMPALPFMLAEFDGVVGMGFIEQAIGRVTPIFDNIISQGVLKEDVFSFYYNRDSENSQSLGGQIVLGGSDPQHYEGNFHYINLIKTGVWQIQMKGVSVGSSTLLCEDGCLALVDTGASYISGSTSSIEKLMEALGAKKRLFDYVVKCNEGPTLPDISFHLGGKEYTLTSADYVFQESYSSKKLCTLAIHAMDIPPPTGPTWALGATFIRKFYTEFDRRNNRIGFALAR
Description: Inhibition of human renal renin in vitro (angiotensin I formed measured by radioimmunoassay). It is filed as biochemical. The settings on record: human renal renin free from acid proteolytic activity, renin substrate human angiotensinogen, 37 degrees C, pH 6.0; read-out: IC50 (molar concentration required to cause 50% inhibition). On the procedure: The compounds of the invention are also useful for treating congestive heart failure in a mammal. […] At the end of the incubation, the amount of angiotensin I formed is measured by radioimmunoassay and the molar concentration required to cause 50% inhibition, expressed as the IC50, is calculated.
On to `CC(C)C[C@H](NC(=O)[C@H](Cc1cscn1)NC(=O)[C@@H](CC(=O)N(C)CCn1cccn1)Cc1ccccc1)[C@@H](O)[C@@H](O)CC(C)C` [Example 111, (2R)-2-Benzyl-3-[(2-pyrazol-1-ylethyl)methylaminocarbonyl]propionyl-L-(4-Thiazolyl)Ala Amide of (4S,5R,6S)-6-Amino-4,5-dihydroxy-2,8-dimethylnonane], for which the IC50 was found to be 0.49 nM.

For the compound `CC[C@H](O)[C@H](O)[C@H](CC1CCCCC1)NC(=O)[C@H](Cc1cscn1)NC(=O)[C@@H](CC(=O)N(C)CCn1cccn1)Cc1ccccc1` [Example 112, (2R)-2-Benzyl-3-[(2-pyrazol-1-ylethyl)methylaminocarbonyl]propionyl-L-(4-Thiazolyl)Ala Amide of (2S,3R,4S)-2-Amino-1-cyclohexyl-3,4-dihydroxyhexane], the IC50 stood at 0.25 nM.

For `CC(C)C[C@H](O)[C@H](O)[C@H](CC1CCCCC1)NC(=O)[C@H](Cc1cscn1)NC(=O)[C@H](Cc1ccccc1)N1CCOCC1` [Example 113, (2S)-2-(4-Morpholinyl)-3-phenylpropionyl-L-(4-thiazolyl)Ala Amide of (2S,3R,4S)-2-Amino-1-cyclohexyl-3,4-dihydroxy-6-methylheptane], the IC50 is 0.15 nM.

As to `CC(C)C[C@H](O)[C@H](O)[C@H](CC1CCCCC1)NC(=O)[C@H](Cc1cscn1)NC(=O)[C@@H](CC(=O)N(C)CCc1ccccn1)Cc1ccccc1` [Example 114], the IC50 came to 0.33 nM.

Regarding `COc1ccc(C[C@H](NC(=O)N(C)CCc2ccccn2)C(=O)N[C@@H](Cc2cscn2)C(=O)N[C@@H](CC2CCCCC2)[C@@H](O)[C@@H](O)CC(C)C)cc1` [Example 115, [2-Pyridin-2-ylethyl(methyl)amino]carbonyl(O-methyl)pyrosine-L-(4-thiazolyl)Ala Amide of (2S,3R,4S)-2-Amino-1-cyclohexyl-3,4-dihydroxy-6-methylheptane], the IC50 is 0.78 nM.

For `CC(C)C[C@H](O)[C@H](O)[C@H](CC1CCCCC1)NC(=O)[C@H](Cc1cscn1)NC(=O)[C@@H](CC(=O)N(C)CCN1CCN(C)CC1)Cc1ccccc1` [Example 116, (2R)-2-Benzyl-3-[2-(4-methyloioerazin-1-ylethyl)methylaminocarbonyl]propionyl-L-(4-thiazolyl) Ala Amide of (2S,3R,4S)-2-Amino-1-cyclohexyl-3,4-dihydroxy-6-methylheptane], the IC50 was found to be 0.35 nM.

For `CC(C)C[C@H](O)[C@H](O)[C@H](CC1CCCCC1)NC(=O)[C@H](Cc1cscn1)NC(=O)[C@@H](CC(=O)N(C)CCn1ccnc1)Cc1ccccc1` [Example 117, (2R)-2-Benzyl-3-[(2-imidazol-1-ylethyl)methylaminocarbonyl]propionyl-L-(4-thiazolyl)Ala Amide of (2S,3R,4S)-2-Amino-1-cyclohexyl-3,4-dihydroxy-6-methylheptane], the IC50 was 0.3 nM.

Regarding `CC(C)C[C@H](O)[C@H](O)[C@H](CC1CCCCC1)NC(=O)[C@H](Cc1cscn1)NC(=O)[C@@H](CC(=O)N(C)CCn1cccn1)Cc1ccccc1` [Example 118, (2R)-2-Benzyl-3-[(2-pyrazol-1-ylethyl)methylaminocarbonyl]propionyl-L-(4-thiazolyl)Ala Amide of (2S,3R,4S)-2-Amino-1-cyclohexyl-3,4-dihydroxy-6-methylheptane], the IC50 was 0.3 nM.

With `CC(C)C[C@H](O)[C@H](O)[C@H](CC1CCCCC1)NC(=O)[C@H](Cn1cccn1)NC(=O)[C@@H](CC(=O)N(C)CCc1ccccn1)Cc1ccccc1` [Example 119, (2R)-2-Benzyl-3-[(2-pyridin-2-ylethyl)methylaminocarbonyl]propionyl-L-(1-pyrazolyl)Ala Amide of (2S,3R,4S)-2-Amino-1-cyclohexyl-3,4-dihydroxy-6-methylheptane], the IC50 was determined as 0.33 nM.

For the compound `CC(C)C[C@H](O)[C@H](O)[C@H](CC1CCCCC1)NC(=O)[C@H](Cn1cccn1)NC(=O)[C@@H](CC(=O)N(C)CCn1ccnc1)Cc1ccccc1` [Example 120, (2R)-2-Benzyl-3-[(2-imidazol-1-ylethyl)methylaminocarbonyl]propionyl-L-(1-pyrazolyl)Ala Amide of (2S,3R,4S)-2-Amino-1-cyclohexyl-3,4-dihydroxy-6-methylheptane], the IC50 stood at 0.22 nM.

For the compound `CCCC[C@H](NC(=O)[C@@H](CC(=O)N(C)CCn1cccn1)Cc1ccccc1)C(=O)N[C@@H](CC1CCCCC1)[C@@H](O)[C@@H](O)CC(C)C` [Example 121, (2R)-2-Benzyl-3-[(2-pyrazol-1-ylethyl)methylaminocarbonyl]propionyl-Nle Amide of (2S,3R,4S)-2-Amino-1-cyclohexyl-3,4-dihydroxy-6-methylheptane], the IC50 is 0.33 nM.

`CCCC[C@H](NC(=O)[C@@H](CC(=O)N(C)CCc1ccccn1)Cc1ccccc1)C(=O)N[C@@H](CC1CCCCC1)[C@@H](O)[C@@H](O)CC(C)C` [Example 122, (2R)-2-Benzyl-3-[(2-pyridin-2-ylethyl)methylaminocarbonyl]propionyl-Nle Amide of (2S,3R,4S)-2-Amino-1-cyclohexyl-3,4-dihydroxy-6-methylheptane]: the IC50 amounted to 0.43 nM.

As to `CCCC[C@H](NC(=O)[C@@H](CC(=O)N(C)CCn1ccnc1)Cc1ccccc1)C(=O)N[C@@H](CC1CCCCC1)[C@@H](O)[C@@H](O)CC(C)C` [Example 123, (2R)-2-Benzyl-3-[(2-imidazol-1-ylethyl)methylaminocarbonyl]propionyl-Nle Amide of (2S,3R,4S)-2-Amino-1-cyclohexyl-3,4-dihydroxy-6-methylheptane], the IC50 is 0.26 nM.

As for `CC(C)C[C@H](O)[C@H](O)[C@H](CC1CCCCC1)NC(=O)[C@H](Cc1cscn1)NC(=O)[C@@H](CC(=O)N(C)c1ccncc1)Cc1ccccc1` [Example 124, (2R)-2-Benzyl-3-[(N-pyridin-4-yl)methylaminocarbonyl]propionyl-L-(4-thiazolyl)Ala Amide of (2S,3R,4S)-2-Amino-1-cyclohexyl-3,4-dihydroxy-6-methylheptane], the IC50 was 0.34 nM.

Turning to `CC(C)C[C@H](O)[C@H](O)[C@H](CC1CCCCC1)NC(=O)[C@H](Cc1cscn1)NC(=O)[C@@H](CC(=O)N1CCN(C2CC2)CC1)Cc1ccccc1` [Example 125, (2R)-2-Benzyl-3-[(4-cyclopropylpiperazin-1-yl)carbonyl]propionyl-L-(4-thiazolyl)Ala Amide of (2S,3R,4S)-2-Amino-1-cyclohexyl-3,4-dihydroxy-6-methylheptane], the IC50 turned out to be 0.55 nM.

Consider `CC(C)C[C@H](O)[C@H](O)[C@H](CC1CCCCC1)NC(=O)C(Cn1cccn1)N(C)C(=O)[C@@H](CC(=O)N(C)CCc1ccccn1)Cc1ccccc1` (stereo partly drawn) [Example 134, (2R)-2-Benzyl-3-[(2-pyridin-2-ylethyl)methylaminocarbonyl]propionyl-(N-α-methyl)-(1-pyrazolyl) alanine Amide of (2S,3R,4S)-2-Amino-1-cyclohexyl-3,4-dihydroxy-6-methylheptane], for which the IC50 was 1.3 nM.

Consider `CC(C)C[C@H](O)[C@H](O)[C@H](CC1CCCCC1)NC(=O)[C@H](Cn1cccn1)NC(=O)[C@@H](CC(=O)N(C)CCN1CCOCC1)Cc1ccccc1` [Example 140, (2R)-2-Benzyl-3-[(2-morpholin-4-ylethyl)methylaminocarbonyl]propionyl-L-(1-pyrazolyl)Ala Amide of (2S,3R,4S)-2-Amino-1-cyclohexyl-3,4-dihydroxy-6-methylheptane.], for which the IC50 was 0.12 nM.

For `CC(C)C[C@H](O)[C@H](O)[C@H](CC1CCCCC1)NC(=O)[C@H](Cn1ccnc1)NC(=O)[C@@H](CC(=O)N(C)CCc1ccccn1)Cc1ccccc1` [Example 141, (2R)-2-Benzyl-3-[(2-pyridin-2-ylethyl)methylaminocarbonyl]propionyl-L-(1-imidazolyl)Ala Amide of (2S,3R,4S)-2-Amino-1-cyclohexyl-3,4-dihydroxy-6-methylheptane], the IC50 was determined as 0.88 nM.

With `CC(C)C[C@H](O)[C@H](O)[C@H](CC1CCCCC1)NC(=O)[C@H](Cn1cccn1)NC(=O)[C@@H](CC(=O)N(C)CCn1cccn1)Cc1ccccc1` [Example 142, (2R)-2-Benzyl-3-[(2-pyrazol-1-ylethyl)methylaminocarbonyl]propionyl-L-(1-pyrazolyl)Ala Amide of (2S,3R,4S)-2-Amino-1-cyclohexyl-3,4-dihydroxy-6-methylheptane], the IC50 came to 0.19 nM.

With `CC(C)C[C@H](O)[C@H](O)[C@H](CC1CCCCC1)NC(=O)[C@H](Cc1cscn1)NC(=O)[C@@H](CC(=O)N(C)CCc1c[nH]c2ccccc12)Cc1ccccc1` [Example 152, (2R)-2-Benzyl-3-[(2-indol-3-ylethyl)methylaminocarbonyl]propionyl-L-(4-thiazolyl)Ala Amide of (2S,3R,4S)-2-Amino-1-cyclohexyl-3,4-dihydroxy-6-methylheptane], the IC50 was 0.59 nM.

`CC(C)C[C@H](O)[C@H](O)[C@H](CC1CCCCC1)NC(=O)[C@H](Cc1cscn1)NC(=O)[C@@H](CC(=O)N(C)CCn1cccc1)Cc1ccccc1` [Example 153, (2R)-2-Benzyl-3-[(2-pyrrol-1-ylethyl)methylcarbonyl]propionyl-L-(4-thiazolyl)Ala Amide of (2S,3R,4S)-2-Amino-1-cyclohexyl-3,4-dihydroxy-6-methylheptane]: the IC50 was 0.28 nM.
